Measured values from the supplement of paper PMC4862054.
Values joined by “and” are separate entries in the source; they are usually repeats but may differ in a detail not shown here. Equal values may be shown once.

Legend:
Settings in all cases: incubation time: 72 h
Hs578T [1] = assay: normalised viability (% of control), CellTiter-Blue; higher = more viable cells (100 = DMSO, 0 = benzethonium chloride kill control)
Experimental: (§1)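 DSRT, CellTiter-Blue viability, 72 h incubation. Signal is normalised to DMSO and benzethonium chloride controls. Value is the normalised response at dose 1.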

MDA-MB-468 [2] = assay: as above
Experimental: as §1

HCC1599 [3] = assay: as above
Experimental: as §1

MFM-223 [4] = assay: as above
Experimental: as §1

CAL-51 [5] = assay: as above
Experimental: as §1

SK-BR-3 [6] = assay: as above
Experimental: as §1

CAL-148 [7] = assay: as above
Experimental: as §1

HCC1143 [8] = assay: as above
Experimental: as §1

DU-4475 [9] = assay: as above
Experimental: as §1

CAL-85-1 [10] = assay: as above
Experimental: as §1

HCC1937 [11] = assay: as above
Experimental: as §1

MDA-MB-453 [12] = assay: as above
Experimental: as §1

HDQ-P1 [13] = assay: as above
Experimental: as §1

MDA-MB-231 [14] = assay: as above
Experimental: as §1

CAL-120 [15] = assay: as above
Experimental: as §1

Hs578T [16] = assay: normalised response (% of control), CellTiter-Glo; higher = more viable cells (100 = DMSO, 0 = benzethonium chloride kill control)
Outline: (§2)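 CellTox Green fluorescence (485/520 nm) and, after 10 min at room temperature, CellTiter-Glo luminescence were read from breast cancer cell lines incubated 72 h in 384-well plates. Cells were seeded as 20 µl suspension onto compound at 5 concentrations in 10-fold steps over a 10,000-fold range chosen per compound. Each plate was normalised to 0.1 % DMSO (100) and a positive kill control (0). Values are normalised signals, one per concentration.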

MDA-MB-468 [17] = assay: as above
Outline: as §2

HCC1599 [18] = assay: as above
Outline: as §2

MDA-MB-436 = assay: as above
Outline: as §2

MFM-223 [19] = assay: as above
Outline: as §2

CAL-51 [20] = assay: as above
Outline: as §2

SK-BR-3 [21] = assay: as above
Outline: as §2

CAL-148 [22] = assay: as above
Outline: as §2

BT-549 = assay: as above
Outline: as §2

HCC1143 [23] = assay: as above
Outline: as §2

MCF-10A = assay: as above
Outline: as §2

DU-4475 [24] = assay: as above
Outline: as §2

CAL-85-1 [25] = assay: as above
Outline: as §2

HCC1937 [26] = assay: as above
Outline: as §2

MDA-MB-453 [27] = assay: as above
Outline: as §2

BT-474 = assay: as above
Outline: as §2

HDQ-P1 [28] = assay: as above
Outline: as §2

MDA-MB-231 [29] = assay: as above
Outline: as §2

CAL-120 [30] = assay: as above
Outline: as §2

Question: `CCCCCOC(=O)Nc1nc(=O)n([C@@H]2O[C@H](C)[C@@H](O)[C@H]2O)cc1F` [Capecitabine] (1 nM) was tested. Which normalised viability (Hs578T [1]) did it give?
Answer: Its normalised viability is 105% and 96.7%.

Question: And the normalised viability (MDA-MB-468 [2])?
Answer: The normalised viability was 106% and 115%.

Question: What about the normalised viability (HCC1599 [3]) of the same molecule?
Answer: The normalised viability was 88.8% and 111%.

Question: What about the normalised viability (MFM-223 [4]) of the same molecule?
Answer: Its normalised viability is 88.8% and 95.7%.

Question: What about the normalised viability (CAL-51 [5]) of the same molecule?
Answer: Its normalised viability is 106% and 99.2%.

Question: And the normalised viability (SK-BR-3 [6])?
Answer: The normalised viability was 117% and 92.1%.

Question: What about the normalised viability (CAL-148 [7]) of the same molecule?
Answer: Its normalised viability is 106% and 102%.

Question: And the normalised viability (HCC1143 [8])?
Answer: The normalised viability was 93.5% and 107%.

Question: What about the normalised viability (DU-4475 [9]) of the same molecule?
Answer: Its normalised viability is 108% and 102%.

Question: What about the normalised viability (CAL-85-1 [10]) of the same molecule?
Answer: Its normalised viability is 86.7% and 109%.

Question: And the normalised viability (HCC1937 [11])?
Answer: Its normalised viability is 84.3% and 85%.

Question: What about the normalised viability (MDA-MB-453 [12]) of the same molecule?
Answer: The normalised viability was 102% and 97.9%.

Question: And the normalised viability (HDQ-P1 [13])?
Answer: The normalised viability was 85.1% and 91.7%.

Question: What about the normalised viability (MDA-MB-231 [14]) of the same molecule?
Answer: Its normalised viability is 94.7% and 83.7%.

Question: What about the normalised viability (CAL-120 [15]) of the same molecule?
Answer: The normalised viability was 85.3% and 96.5%.

Question: And the normalised response (Hs578T [16])?
Answer: Its normalised response is 102%.

Question: What about the normalised response (MDA-MB-468 [17]) of the same molecule?
Answer: The normalised response was 103%.

Question: And the normalised response (HCC1599 [18])?
Answer: The normalised response was 95.5%.

Question: And the normalised response (MDA-MB-436)?
Answer: The normalised response was 88.7%.

Question: And the normalised response (MFM-223 [19])?
Answer: Its normalised response is 98.2%.

Question: What about the normalised response (CAL-51 [20]) of the same molecule?
Answer: The normalised response was 67.8%.

Question: What about the normalised response (SK-BR-3 [21]) of the same molecule?
Answer: Its normalised response is 110%.

Question: And the normalised response (CAL-148 [22])?
Answer: The normalised response was 106%.

Question: And the normalised response (BT-549)?
Answer: Its normalised response is 107%.

Question: What about the normalised response (HCC1143 [23]) of the same molecule?
Answer: Its normalised response is 96.8%.

Question: And the normalised response (MCF-10A)?
Answer: The normalised response was 94.5%.

Question: What about the normalised response (DU-4475 [24]) of the same molecule?
Answer: The normalised response was 99.7%.

Question: What about the normalised response (CAL-85-1 [25]) of the same molecule?
Answer: The normalised response was 96.8%.

Question: What about the normalised response (HCC1937 [26]) of the same molecule?
Answer: Its normalised response is 98.2%.

Question: What about the normalised response (MDA-MB-453 [27]) of the same molecule?
Answer: The normalised response was 113%.

Question: And the normalised response (BT-474)?
Answer: The normalised response was 95.2%.

Question: What about the normalised response (HDQ-P1 [28]) of the same molecule?
Answer: The normalised response was 102%.

Question: What about the normalised response (MDA-MB-231 [29]) of the same molecule?
Answer: Its normalised response is 102%.

Question: What about the normalised response (CAL-120 [30]) of the same molecule?
Answer: Its normalised response is 94.6%.
